The text below walks through data of US20250101023A1, “HETEROARYL DERIVATIVE AND USES THEREOF” (IUCF-HYU (INDUSTRY-UNIVERSITY COOPERATION FOUNDATION …, priority 2022, published 2025).

In one series the target is CDK12/CyclinK (Homo sapiens (Human), UniProt Q9NYV4). As to the kind of experiment: CDK12/cyclinK enzyme activity. Type of series: biochemical. The note with it: in vitro.
Another series deals with cyclinK. Description: Western blot, cyclinK degradation. It counts as cell-based. Particulars: SK-Br3 cell line, 0.2 and 1 μM, 2 hours. On the technique in general: A western blot detects proteins with antibodies after separation by electrophoresis.
For the next series, the system named is HCC1954 cells. Description: Breast cancer growth inhibitory activity (Cell-titer Glo, 72 h). It counts as cell-based. The note with it: Homo sapiens, 72 hours, read-out: HCC1954 (GI50/μM). Here is the method:
(§1) Breast cancer cells in a culture solution (100 μL volume/well, 2,500 SK-Br3 cells/well, 1,000 HCC-1954 cells/well) were seeded into a tissue culture-treated 96-well plate and cultured in a cell incubator for 24 hours. […] Cell-titer Glo™ reagent (50 μL of a 5-fold diluted solution, Promega) was added to each well, and luminescence signals were measured using an Envision™ plate reader (PerkinElmer, USA). Titration curve fitting and IC50 values were generated using Prism 7.0 s/w (GraphPad, San Diego, USA).

Series [1] relates to Pol II CTD (Ser2) phosphorylation. Description: Western blot, Pol II CTD Ser2 phosphorylation. Type of series: cell-based. Particulars: SK-Br3 cell line, 0.2 and 1 μM, 2 hours.
A further series relates to SK-Br3 cells. As to the kind of experiment: Breast cancer growth inhibitory activity (Cell-titer Glo, 72 h). Type of series: cell-based. The note with it: Homo sapiens, SK-BR-3; 72 hours; read-out: SK-Br3 (GI50/μM). Here is the method: as §1
In another series the target is CYP1A2 (Homo sapiens (Human), UniProt P05177). As to the kind of experiment: in vitro. It counts as in vitro ADME. As for the experimental part:
(§2) 5 derivatives were evaluated for in vitro metabolic stability in liver microsomes from three different species (human, dog, mouse) and for inhibitory activity against 5 representative cytochrome P450 enzymes (CYPs)(Table 3). In terms of liver microsomal stability, the 2′-pyridyl group is more suitable than the α-methyl-4′-pyridyl group as the terminal aromatic group at position 6, and the aminopyrimidyl group is better than the aminopyridyl group as a substituent at position 2.

Series [2] is described as follows: Liver microsomal metabolic stability. It counts as in vitro ADME. The note with it: for Liver microsomal metabolic stability (% remaining amount) Dog: dog liver microsomes; for Liver microsomal metabolic stability (% remaining amount) Human: human liver microsomes; for Liver microsomal metabolic stability (% remaining amount) Mouse: mouse liver microsomes. As for the experimental part: as §2
(Liver microsomes are vesicles of endoplasmic reticulum, rich in cytochrome P450 enzymes.)

A further series has as its target CYP2C9 (Homo sapiens (Human), UniProt P11712). As to the kind of experiment: CYP inhibitory activity. It counts as in vitro ADME. The note with it: read-out: CYP % activity at 10 μM concentration 2C9. As for the experimental part: as §2
In the next series the target is CYP2D6 (Homo sapiens (Human), UniProt P10635). Description: CYP inhibitory activity. Type of series: in vitro ADME. The note with it: read-out: CYP % activity at 10 μM concentration 2D6. Here is the method: as §2
The target of another series is CYP2C19 (Homo sapiens (Human), UniProt P33261). As to the kind of experiment: CYP inhibitory activity. The note with it: read-out: CYP % activity at 10 μM concentration 2C19. Type of series: in vitro ADME. As for the experimental part: as §2
In another series the target is CYP3A4 (Homo sapiens (Human), UniProt P08684). Description: CYP inhibitory activity. It counts as in vitro ADME. Particulars: read-out: CYP % activity at 10 μM concentration 3A4. Here is the method: as §2
Sequence of CYP3A4 (P08684 whole entry): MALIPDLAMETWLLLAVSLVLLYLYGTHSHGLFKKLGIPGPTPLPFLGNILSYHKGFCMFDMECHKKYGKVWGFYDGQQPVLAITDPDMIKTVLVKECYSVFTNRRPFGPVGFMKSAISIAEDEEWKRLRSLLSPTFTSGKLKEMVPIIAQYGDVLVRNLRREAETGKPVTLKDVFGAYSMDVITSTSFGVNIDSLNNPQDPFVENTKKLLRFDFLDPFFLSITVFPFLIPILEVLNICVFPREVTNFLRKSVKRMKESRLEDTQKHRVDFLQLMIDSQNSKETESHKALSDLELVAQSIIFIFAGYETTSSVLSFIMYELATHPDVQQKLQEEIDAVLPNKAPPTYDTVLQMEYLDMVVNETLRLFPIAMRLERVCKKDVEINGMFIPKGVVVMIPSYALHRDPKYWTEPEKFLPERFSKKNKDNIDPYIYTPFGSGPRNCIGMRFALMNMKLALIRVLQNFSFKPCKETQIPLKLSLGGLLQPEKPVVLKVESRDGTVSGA

Sequence of CDK12/CyclinK (Q9NYV4 whole entry): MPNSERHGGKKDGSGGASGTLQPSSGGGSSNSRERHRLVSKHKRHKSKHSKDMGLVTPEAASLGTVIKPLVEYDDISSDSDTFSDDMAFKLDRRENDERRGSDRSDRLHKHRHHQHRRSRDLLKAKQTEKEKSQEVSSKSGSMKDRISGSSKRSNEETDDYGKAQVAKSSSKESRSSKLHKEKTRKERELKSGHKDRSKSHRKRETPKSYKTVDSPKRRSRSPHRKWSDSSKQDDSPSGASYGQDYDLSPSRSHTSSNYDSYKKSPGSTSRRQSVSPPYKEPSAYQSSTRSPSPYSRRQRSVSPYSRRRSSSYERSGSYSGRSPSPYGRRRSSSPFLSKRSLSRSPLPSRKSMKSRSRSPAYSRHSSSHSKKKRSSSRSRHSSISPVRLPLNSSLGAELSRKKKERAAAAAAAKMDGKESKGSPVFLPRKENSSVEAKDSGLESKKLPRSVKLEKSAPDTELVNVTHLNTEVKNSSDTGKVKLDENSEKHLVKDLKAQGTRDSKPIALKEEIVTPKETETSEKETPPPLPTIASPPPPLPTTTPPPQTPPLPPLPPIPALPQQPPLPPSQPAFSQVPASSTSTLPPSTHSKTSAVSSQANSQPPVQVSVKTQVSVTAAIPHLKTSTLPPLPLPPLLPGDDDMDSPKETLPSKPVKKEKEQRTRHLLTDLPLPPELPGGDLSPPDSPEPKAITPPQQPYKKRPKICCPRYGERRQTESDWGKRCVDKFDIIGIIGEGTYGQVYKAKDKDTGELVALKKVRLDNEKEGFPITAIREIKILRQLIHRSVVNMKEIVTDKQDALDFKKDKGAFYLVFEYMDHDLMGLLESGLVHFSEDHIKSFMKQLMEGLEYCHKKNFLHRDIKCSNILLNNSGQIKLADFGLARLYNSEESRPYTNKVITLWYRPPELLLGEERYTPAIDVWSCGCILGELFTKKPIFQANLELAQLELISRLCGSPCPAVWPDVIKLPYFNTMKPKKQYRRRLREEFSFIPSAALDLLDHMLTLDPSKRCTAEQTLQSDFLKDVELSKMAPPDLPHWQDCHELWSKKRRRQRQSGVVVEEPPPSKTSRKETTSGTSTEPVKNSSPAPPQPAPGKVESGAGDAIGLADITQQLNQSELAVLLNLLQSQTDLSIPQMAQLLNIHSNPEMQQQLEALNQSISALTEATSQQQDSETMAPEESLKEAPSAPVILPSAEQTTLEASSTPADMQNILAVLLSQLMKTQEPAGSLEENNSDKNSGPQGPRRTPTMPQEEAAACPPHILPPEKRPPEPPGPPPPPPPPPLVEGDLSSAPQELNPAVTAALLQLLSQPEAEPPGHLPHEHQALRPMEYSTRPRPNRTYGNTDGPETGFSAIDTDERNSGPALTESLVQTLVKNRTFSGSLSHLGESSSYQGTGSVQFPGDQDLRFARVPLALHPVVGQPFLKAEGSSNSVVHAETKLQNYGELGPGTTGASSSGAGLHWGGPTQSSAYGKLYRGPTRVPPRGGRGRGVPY
Sequence of CDK12/CyclinK (O75909 whole entry partner): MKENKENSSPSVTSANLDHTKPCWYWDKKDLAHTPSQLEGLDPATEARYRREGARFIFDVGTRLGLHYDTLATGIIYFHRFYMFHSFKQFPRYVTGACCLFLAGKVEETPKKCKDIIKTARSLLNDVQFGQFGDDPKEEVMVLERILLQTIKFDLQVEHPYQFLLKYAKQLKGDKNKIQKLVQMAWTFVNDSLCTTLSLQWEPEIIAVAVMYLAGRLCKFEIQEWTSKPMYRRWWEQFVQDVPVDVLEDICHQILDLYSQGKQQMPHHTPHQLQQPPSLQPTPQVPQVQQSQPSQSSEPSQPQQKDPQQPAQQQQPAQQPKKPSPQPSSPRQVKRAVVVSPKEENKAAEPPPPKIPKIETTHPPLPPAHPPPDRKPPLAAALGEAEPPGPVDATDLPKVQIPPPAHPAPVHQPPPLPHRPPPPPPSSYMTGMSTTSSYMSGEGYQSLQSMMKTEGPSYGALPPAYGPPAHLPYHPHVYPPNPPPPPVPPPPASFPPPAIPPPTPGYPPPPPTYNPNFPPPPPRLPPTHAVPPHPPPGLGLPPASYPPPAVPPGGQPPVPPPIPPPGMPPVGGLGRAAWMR
Sequence of CYP1A2 (P05177 whole entry): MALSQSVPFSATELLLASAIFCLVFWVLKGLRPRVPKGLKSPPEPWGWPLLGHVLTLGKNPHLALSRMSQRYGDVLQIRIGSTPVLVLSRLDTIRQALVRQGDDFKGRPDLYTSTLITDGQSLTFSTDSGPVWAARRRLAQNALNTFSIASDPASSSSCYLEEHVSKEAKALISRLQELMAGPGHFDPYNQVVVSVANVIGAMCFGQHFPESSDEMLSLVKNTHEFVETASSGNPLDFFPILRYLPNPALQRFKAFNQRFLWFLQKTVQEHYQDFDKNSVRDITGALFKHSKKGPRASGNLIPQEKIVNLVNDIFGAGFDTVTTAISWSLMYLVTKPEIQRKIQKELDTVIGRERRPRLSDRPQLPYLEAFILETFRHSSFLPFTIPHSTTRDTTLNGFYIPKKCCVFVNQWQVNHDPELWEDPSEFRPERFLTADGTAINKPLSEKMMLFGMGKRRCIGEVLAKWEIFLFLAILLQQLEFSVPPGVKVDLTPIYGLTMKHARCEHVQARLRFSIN
Sequence of CYP2C19 (P33261 whole entry): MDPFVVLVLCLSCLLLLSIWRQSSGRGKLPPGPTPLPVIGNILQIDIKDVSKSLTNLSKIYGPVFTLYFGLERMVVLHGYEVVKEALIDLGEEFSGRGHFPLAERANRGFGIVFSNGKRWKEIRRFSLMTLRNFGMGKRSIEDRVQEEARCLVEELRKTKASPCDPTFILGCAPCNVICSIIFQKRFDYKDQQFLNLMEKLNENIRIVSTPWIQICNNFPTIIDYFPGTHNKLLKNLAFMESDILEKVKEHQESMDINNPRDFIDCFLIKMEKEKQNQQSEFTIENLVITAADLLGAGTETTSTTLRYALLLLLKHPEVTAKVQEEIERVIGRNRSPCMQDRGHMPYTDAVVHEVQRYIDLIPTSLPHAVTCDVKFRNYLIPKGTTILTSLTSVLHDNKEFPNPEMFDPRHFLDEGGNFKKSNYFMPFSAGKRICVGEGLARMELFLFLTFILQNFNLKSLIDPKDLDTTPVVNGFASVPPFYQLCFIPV
Sequence of CYP2C9 (P11712 whole entry): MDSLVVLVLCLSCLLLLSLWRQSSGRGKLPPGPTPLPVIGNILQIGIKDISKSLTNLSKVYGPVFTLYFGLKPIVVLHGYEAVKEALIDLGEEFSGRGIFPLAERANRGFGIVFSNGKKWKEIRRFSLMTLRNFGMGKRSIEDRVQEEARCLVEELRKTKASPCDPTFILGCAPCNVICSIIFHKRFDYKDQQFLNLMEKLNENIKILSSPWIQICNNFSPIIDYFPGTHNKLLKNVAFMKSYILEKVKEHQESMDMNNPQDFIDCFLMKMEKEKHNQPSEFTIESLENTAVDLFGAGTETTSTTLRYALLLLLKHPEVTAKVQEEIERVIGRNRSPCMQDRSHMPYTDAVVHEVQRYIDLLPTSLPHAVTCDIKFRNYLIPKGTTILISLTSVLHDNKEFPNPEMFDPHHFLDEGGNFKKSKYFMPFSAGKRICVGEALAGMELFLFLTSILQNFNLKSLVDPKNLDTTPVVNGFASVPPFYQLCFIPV
Sequence of CYP2D6 (P10635 whole entry): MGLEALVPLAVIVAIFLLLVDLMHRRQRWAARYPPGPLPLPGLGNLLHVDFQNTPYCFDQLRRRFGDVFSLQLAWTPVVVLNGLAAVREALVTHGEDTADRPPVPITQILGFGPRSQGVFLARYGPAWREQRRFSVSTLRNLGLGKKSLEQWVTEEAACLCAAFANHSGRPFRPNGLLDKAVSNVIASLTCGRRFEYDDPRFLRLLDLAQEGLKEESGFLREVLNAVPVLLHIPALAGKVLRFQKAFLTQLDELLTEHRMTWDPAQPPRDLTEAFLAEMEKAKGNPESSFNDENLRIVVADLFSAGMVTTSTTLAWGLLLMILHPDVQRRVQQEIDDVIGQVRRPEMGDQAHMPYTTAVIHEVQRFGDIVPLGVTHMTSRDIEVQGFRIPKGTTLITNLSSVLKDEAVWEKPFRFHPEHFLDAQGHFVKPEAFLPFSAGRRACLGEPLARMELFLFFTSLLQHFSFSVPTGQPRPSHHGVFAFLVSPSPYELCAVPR

For orientation: IC50 means the concentration that inhibits the measured activity by half. Read a low IC50 as inhibition by little substance. At CDK12/CyclinK, `CC(C)n1cnc2c(NCc3ccc(-c4ccccn4)cn3)nc(-c3cccnc3)nc21` [Example 1, N-([2,3′-bipyridin]-6′-ylmethyl)-9-isopropyl-2-(pyridin-3-yl)-9H-purin-6-amine] yielded an IC50 of 0.433 µM. Also, the cyclinK degradation result in the series on cyclinK was “induced the degradation of cyclinK”. The GI50 in the series with HCC1954 cells is 0.105 µM. In addition, in [1], the “Pol II CTD (Ser2) phosphorylation” value is listed as “inhibited Pol II CTD (Ser2) phosphorylation in a dose-dependent manner”.

For `CC(C)n1cnc2c(NCc3ccc(-c4ccncc4)cn3)nc(-c3cccnc3)nc21` [Example 4, N-([3,4′-bipyridin]-6-ylmethyl)-9-isopropyl-2-(pyridin-3-yl)-9H-purin-6-amine], the IC50 at CDK12/CyclinK is 0.627 µM. Moreover, the cyclinK degradation result in the series on cyclinK is given as “induced the degradation of cyclinK”. Moreover, the figures for the GI50 with SK-Br3 cells and in the series on HCC1954 cells were 0.74 µM and 0.888 µM, respectively. Further, the “Pol II CTD (Ser2) phosphorylation” value in series [1] is recorded as “inhibited Pol II CTD (Ser2) phosphorylation in a dose-dependent manner”.

Take `CCn1cnc2c(NCc3ccc(-c4ccnc(C)c4)nc3)nc(-c3ccc(N)nc3)nc21` [Example 49, 2-(6-aminopyridin-3-yl)-9-ethyl-N-((2′-methyl-[2,4′-bipyridin]-5-yl)methyl)-9H-purin-6-amine]: the activity at 10 µM is 59.3% on CYP1A2; 73% at CYP2C9; 89.6% at CYP2D6; 76.8% at CYP2C19; 38.9% on CYP3A4. In addition, on CDK12/CyclinK, the IC50 came to 0.012 µM. The GI50 in the series on SK-Br3 cells turned out to be 0.133 µM. Also, in series [2], the “Liver microsomal metabolic stability (% remaining amount) Dog” value came to 45.1%. Besides, in series [2], the “Liver microsomal metabolic stability (% remaining amount) Human” value is 32.2%. Also, the “Liver microsomal metabolic stability (% remaining amount) Mouse” value in series [2] is listed as 35.3%.

`CC(C)n1cnc2c(NCc3ccc(-c4cccnc4)nc3)nc(-c3ccc4cn[nH]c4c3)nc21` [Example 13, N-([2,3′-bipyridin]-5-ylmethyl)-2-(1H-indazol-6-yl)-9-isopropyl-9H-purin-6-amine] yielded an IC50 against CDK12/CyclinK of 0.179 µM. The GI50 in the series with SK-Br3 cells amounted to 0.597 µM; in the series with HCC1954 cells, 0.4 µM.

`CC(C)n1cnc2c(NCc3ccc(-c4cccnc4)nc3)nc(-c3ccc4[nH]ccc4c3)nc21` [Example 11, N-([2,3′-bipyridin]-5-ylmethyl)-2-(1H-indol-5-yl)-9-isopropyl-9H-purin-6-amine] gave a half-maximal inhibitory concentration (IC50) against CDK12/CyclinK of 0.155 µM. Also, the results for the GI50 with SK-Br3 cells and in the series with HCC1954 cells were 1.5 µM and 1.36 µM, respectively.

Take `CC(C)n1cnc2c(NCc3ccc(-c4cccnc4)nc3)nc(-c3ccc(NCCCO)cc3)nc21` [Example 34, 3-((4-(6-(([2,3′-bipyridin]-5-ylmethyl)amino)-9-isopropyl-9H-purin-2-yl)phenyl)amino)propan-1-ol]: 0.499 µM corresponded to half-maximal inhibition against CDK12/CyclinK (IC50). Further, the GI50 in the series with SK-Br3 cells is 1.09 µM; with HCC1954 cells, 0.906 µM.

Molecule `CC(C)n1cnc2c(NCc3ccc(-c4cccnc4)nc3)nc(-c3ccc(N)nc3)nc21` [Example 18, N-([2,3′-bipyridin]-5-ylmethyl)-2-(6-aminopyridin-3-yl)-9-isopropyl-9H-purin-6-amine] came in with a half-inhibitory concentration (IC50) against CDK12/CyclinK of 0.065 µM. For the same molecule, the results for the GI50 with SK-Br3 cells and in the series on HCC1954 cells were 0.375 µM and 0.279 µM, respectively.

Molecule `CC(C)n1cnc2c(NCc3ccc(-c4cccnc4)nc3)nc(-c3ccc(C(N)=O)cc3)nc21` [Example 10, 4-(6-(([2,3′-bipyridin]-5-ylmethyl)amino)-9-isopropyl-9H-purin-2-yl)benzamide] yielded a 50% inhibitory concentration (IC50) on CDK12/CyclinK of 0.484 µM. The GI50 in the series on SK-Br3 cells was 3.7 µM; with HCC1954 cells, 3.14 µM.

In the case of `CC(C)n1cnc2c(NCc3ccc(-c4cccnc4)cn3)nc(-c3cccnc3)nc21` [Example 2, N-([3,3′-bipyridin]-6-ylmethyl)-9-isopropyl-2-(pyridin-3-yl)-9H-purin-6-amine], the IC50 on CDK12/CyclinK amounted to 0.582 µM. Further, the cyclinK degradation result with cyclinK is “induced the degradation of cyclinK”. Further, the values for the GI50 with SK-Br3 cells and with HCC1954 cells were 0.866 µM and 0.659 µM, respectively. For the same molecule, in series [1], the “Pol II CTD (Ser2) phosphorylation” value is given as “inhibited Pol II CTD (Ser2) phosphorylation in a dose-dependent manner”.

Take `Cc1cc(N)n(-c2nc(NCc3ccc(-c4cccnc4)nc3)c3ncn(C(C)C)c3n2)n1` [Example 40, N-([2,3′-bipyridin]-5-ylmethyl)-2-(5-amino-3-methyl-1H-pyrazol-1-yl)-9-isopropyl-9H-purin-6-amine]: on CDK12/CyclinK, the concentration for half-maximal inhibition (IC50) turned out to be 2.35 µM. Besides, the GI50 with SK-Br3 cells worked out at 5.18 µM; with HCC1954 cells it was 3.45 µM.

Take `CC(C)n1cnc2c(NCc3ccc(-c4cccnc4)nc3)nc(-c3ccc(NCCO)nc3)nc21` [Example 35, 2-((5-(6-(([2,3′-bipyridin]-5-ylmethyl)amino)-9-isopropyl-9H-purin-2-yl)pyridin-2-yl)amino)ethan-1-ol]: on CDK12/CyclinK, half-maximal inhibition (IC50) was put at 0.053 µM. The GI50 in the series with SK-Br3 cells came out at 0.261 µM; with HCC1954 cells, 0.173 µM.

With `CCn1cnc2c(NCc3ccc(-c4ccnc(C)c4)nc3)nc(-c3cnc(N)nc3)nc21` [Example 50, 2-(2-aminopyrimidin-5-yl)-9-ethyl-N-((2′-methyl-[2,4′-bipyridin]-5-yl)methyl)-9H-purin-6-amine], the activity at 10 µM on CYP1A2 is 74.9%; on CYP2C9, 82.9%; on CYP2D6 it was 85.7%; at CYP2C19 it was 75.4%; on CYP3A4, 72.4%. The molecule further had a half-inhibitory concentration (IC50) at CDK12/CyclinK of 0.019 µM. Besides, the “Liver microsomal metabolic stability (% remaining amount) Dog” value in [2] was 53.6%. Also, in series [2], the “Liver microsomal metabolic stability (% remaining amount) Human” value worked out at 40.6%. In addition, the “Liver microsomal metabolic stability (% remaining amount) Mouse” value in series [2] is on record as 45.0%.

`CC(C)n1cnc2c(NCc3ccc(-c4cccnc4)nc3)nc(-c3ccccc3N)nc21` [Example 25, N-([2,3′-bipyridin]-5-ylmethyl)-2-(2-aminophenyl)-9-isopropyl-9H-purin-6-amine] gave an IC50 at CDK12/CyclinK of 0.619 µM. Moreover, the GI50 in the series on SK-Br3 cells is 2.58 µM; in the series with HCC1954 cells, 2.62 µM.

At CDK12/CyclinK, `CC(C)n1cnc2c(NCc3ccc(-c4cccnc4)nc3)nc(-c3ccc(F)nc3)nc21` [Example 28, N-([2,3′-bipyridin]-5-ylmethyl)-2-(6-fluoropyridin-3-yl)-9-isopropyl-9H-purin-6-amine] returned an IC50 of 0.147 µM. The GI50 is 1.75 µM in the series on SK-Br3 cells and 1.31 µM with HCC1954 cells.

In turn, `CC(C)n1cnc2c(NCc3ccc(-c4ccncc4)nc3)nc(-c3cccnc3)nc21` [Example 7, N-([2,4′-bipyridin]-5-ylmethyl)-9-isopropyl-2-(pyridin-3-yl)-9H-purin-6-amine] displayed an IC50 against CDK12/CyclinK of 0.153 µM. The GI50 with SK-Br3 cells stood at 0.801 µM; in the series on HCC1954 cells, 0.5 µM.

`CC(C)n1cnc2c(NCc3ccc(-c4cccnc4)nc3)nc(-c3ccccc3NCCCO)nc21` [Example 32, 3-((2-(6-(([2,3′-bipyridin]-5-ylmethyl)amino)-9-isopropyl-9H-purin-2-yl)phenyl)amino)propan-1-ol] showed an IC50 against CDK12/CyclinK of 3.01 µM. In addition, the results for the GI50 with SK-Br3 cells and with HCC1954 cells were 11.3 µM and 6.09 µM, respectively.

As to `CC(C)n1cnc2c(NCc3ccc(-c4cccnc4)nc3)nc(-c3cccnc3)nc21` [Example 6, N-([2,3′-bipyridin]-5-ylmethyl)-9-isopropyl-2-(pyridin-3-yl)-9H-purin-6-amine], the IC50 on CDK12/CyclinK is 0.221 µM. For the same molecule, the GI50 was 0.416 µM with SK-Br3 cells and 0.248 µM in the series on HCC1954 cells.

`Cc1cc(-c2ccc(CNc3nc(-c4cccnc4)nc4c3ncn4C(C)C)nc2)ccn1` [Example 5, 9-isopropyl-N-((2′-methyl-[3,4′-bipyridin]-6-yl)methyl)-2-(pyridin-3-yl)-9H-purin-6-amine] gave an IC50 at CDK12/CyclinK of 0.481 µM. Besides, in the series with cyclinK, the cyclinK degradation result was “induced the degradation of cyclinK”. Also, the “Pol II CTD (Ser2) phosphorylation” value in series [1] is given as “inhibited Pol II CTD (Ser2) phosphorylation in a dose-dependent manner”.

Consider `CC(C)n1cnc2c(NCc3ccc(-c4cccnc4)nc3)nc(-c3cccc(C(N)=O)c3)nc21` [Example 9, 3-(6-(([2,3′-bipyridin]-5-ylmethyl)amino)-9-isopropyl-9H-purin-2-yl)benzamide], for which the IC50 at CDK12/CyclinK turned out to be 0.504 µM. Further, the values for the GI50 with SK-Br3 cells and with HCC1954 cells were 1.6 µM and 1.12 µM, respectively.
